# Experimental data reported in patent EP0099286B1, “Compound containing a tripeptide sequence of the threonyl-lysyl proline-type, or similar, useful as an anti-inflammatory, anti-allergic or antalgesic agent” (INSTITUT PASTEUR DE LILLE, priority 1982, dated 1987).
# Residues, ends and D or L forms follow the SMILES beside them.
# How the values were obtained:
# macrophages [1] = assay: Inhibition of macrophage activity (general); assay type: cell-based; conditions: for propriétés au terme des mêmes tests: same tests as for the tripeptide
# Description: (§1) Selon des tests effectués par les méthodes décrites dans l'article cité plus haut de "Immunology Letters", la L'thréonyl-L-lysyl-L-proline s'est révélée atoxique pour les cellules et inhibitrice non seulement de la libération, mais également de la synthèse de la β-glucuronidase lysosomiale. En présence du peptide, le taux intracellulaire de cette enzyme décroît également. La L-thréonyl-L-lysyl-L-proline inhibe également la stimulation des macrophages de patients allergiques par l'allergène correspondant, lorsqu'ils ont été préincubés en présence du peptide. Cette dépression est très significative (50 à 70%) dans des essais in vitro. La thréonyl-L-lysyl-L-proline présente un pouvoir inhibiteur d'environ 60% aux concentrations de 200 nanogrammes à 20 picogrammes, ce pouvoir inhibiteur étant même de 50% à 2 picogrammes. Cette inhibition par le peptide se manifeste aussi dans des essais d'activation de macrophages par des réactions (IgE)-(Anti-IgE), que ces macrophages aient été incubés auparavant in vitro en présence du peptide, ou obtenus à partir d'animaux auxquels le peptide avait antérieurement été administré par voie intraveineuse (chez le rat, à des doses de 10 µg, trois heures avant le prélèvement des cellules). La libération d'anion superoxyde par les macrophages de rats est également inhibée par le tripeptide en question. […] Le peptide administré au rat induit également une inhibition de l'anaphylaxie cutanée passive provoquée chez l'animal par les administrations successives d'un antigène et de l'antisérum correspondant.
# cellules = assay: Toxicity for the cells; assay type: cell-based; conditions: methods of the cited Immunology Letters article
# Description: (§2) Selon des tests effectués par les méthodes décrites dans l'article cité plus haut de "Immunology Letters", la L'thréonyl-L-lysyl-L-proline s'est révélée atoxique pour les cellules et inhibitrice non seulement de la libération, mais également de la synthèse de la β-glucuronidase lysosomiale. En présence du peptide, le taux intracellulaire de cette enzyme décroît également. La L-thréonyl-L-lysyl-L-proline inhibe également la stimulation des macrophages de patients allergiques par l'allergène correspondant, lorsqu'ils ont été préincubés en présence du peptide. Cette dépression est très significative (50 à 70%) dans des essais in vitro. La thréonyl-L-lysyl-L-proline présente un pouvoir inhibiteur d'environ 60% aux concentrations de 200 nanogrammes à 20 picogrammes, ce pouvoir inhibiteur étant même de 50% à 2 picogrammes. Cette inhibition par le peptide se manifeste aussi dans des essais d'activation de macrophages par des réactions (IgE)-(Anti-IgE), que ces macrophages aient été incubés auparavant in vitro en présence du peptide, ou obtenus à partir d'animaux auxquels le peptide avait antérieurement été administré par voie intraveineuse (chez le rat, à des doses de 10 µg, trois heures avant le prélèvement des cellules). La libération d'anion superoxyde par les macrophages de rats est également inhibée par le tripeptide en question. […]
# [2] = test system: β-glucuronidase lysosomiale; assay: Release and synthesis of lysosomal β-glucuronidase by macrophages; assay type: cell-based
# Description: as §1
# [3] = test system: macrophages de patients allergiques; assay: Stimulation of macrophages of allergic patients by the corresponding allergen, in vitro; assay type: cell-based
# Description: D'autre part, les macrophages alvéolaires de sujets allergiques stimulés par l'allergène correspondant sont également inhibés de manière significative (50 à 60%) s'ils ont été péalablement incubés avec des produits de l'hydrolyse des IgG par les protéases parasitaires.
# Selon des tests effectués par les méthodes décrites dans l'article cité plus haut de "Immunology Letters", la L'thréonyl-L-lysyl-L-proline s'est révélée atoxique pour les cellules et inhibitrice non seulement de la libération, mais également de la synthèse de la β-glucuronidase lysosomiale. En présence du peptide, le taux intracellulaire de cette enzyme décroît également. La L-thréonyl-L-lysyl-L-proline inhibe également la stimulation des macrophages de patients allergiques par l'allergène correspondant, lorsqu'ils ont été préincubés en présence du peptide. Cette dépression est très significative (50 à 70%) dans des essais in vitro. La thréonyl-L-lysyl-L-proline présente un pouvoir inhibiteur d'environ 60% aux concentrations de 200 nanogrammes à 20 picogrammes, ce pouvoir inhibiteur étant même de 50% à 2 picogrammes. […]
# macrophages [4] = assay: Macrophage activation by (IgE)-(Anti-IgE) reactions, macrophages pre-incubated in vitro with the peptide; assay type: cell-based; conditions: macrophages incubated beforehand in vitro with the peptide
# Description: as §2
# macrophages [5] = assay: Macrophage activation by (IgE)-(Anti-IgE) reactions, macrophages from animals given the peptide intravenously; assay type: in vivo; conditions: rat, intravenous, 10 µg, three hours before cell collection
# Description: as §2
# macrophages de rats = assay: Superoxide anion release by macrophages; assay type: cell-based
# Description: as §2
# mastocytes = assay: Mast cell degranulation in vitro; assay type: cell-based, rats; conditions: pre-incubated with peptide; stimulants polymyxine or phytohémagglutinine
# [6] = test system: anaphylaxie cutanée passive; assay: Passive cutaneous anaphylaxis; assay type: in vivo; conditions: rat; provoked by successive administration of antigen and corresponding antiserum
# Description: as §2
# macrophages [7] = conditions: macrophages challenged simultaneously by an antigen and the peptide; cited from earlier work
structure (smiles),measurement,setting,value
"N=C(N)NCCC[C@H](NC(=O)[C@@H]1CCCN1C(=O)[C@@H](N)CCCCN)C(=O)O [L-lysyl-L-prolyl-L-arginine, reference compound] (H-Lys-Pro-Arg-OH)",activité à l'égard de l'activité des macrophages,macrophages [1],n'est pas active
C[C@@H](O)[C@H](N)C(=O)N[C@@H](CCCCN)C(=O)N1CCC[C@H]1C(=O)O [L-thréonyl-L-lysyl-L-proline] (H-Thr-Lys-Pro-OH),activité à l'égard de l'activité des macrophages,macrophages [1],activité inhibitrice semblable
same,toxicité pour les cellules,cellules,atoxique
same,libération de la β-glucuronidase lysosomiale,[2],inhibitrice
same,synthèse de la β-glucuronidase lysosomiale,[2],inhibitrice
same,taux intracellulaire de cette enzyme,"[2]; β-glucuronidase, in presence of the peptide",décroît
same,pouvoir inhibiteur,[3]; 2 picogrammes,50%
same,pouvoir inhibiteur,[3]; concentrations de 200 nanogrammes à 20 picogrammes,~60%
same,inhibition de l'activation de macrophages par des réactions (IgE)-(Anti-IgE),macrophages [4],inhibition
same,inhibition de l'activation de macrophages par des réactions (IgE)-(Anti-IgE),macrophages [5],inhibition
same,libération d'anion superoxyde par les macrophages de rats,macrophages de rats,inhibée
same,dégranulation des mastocytes,mastocytes,inhibition sensible
same,inhibition de l'anaphylaxie cutanée passive,[6],inhibition
same,propriété d'activer les macrophages,macrophages [7],abolition
"C[C@@H](O)[C@H](N)C(=O)N[C@@H](CCCCN)C(=O)N1CCC[C@H]1C(N)=O [dérivé amidé, amide de la thréonyl-lysylproline] (H-Thr-Lys-Pro-NH2)",propriétés au terme des mêmes tests,macrophages [1],essentiellement les mêmes propriétés
CC(=O)N[C@H](C(=O)N[C@@H](CCCCN)C(=O)N1CCC[C@H]1C(=O)O)[C@@H](C)O [dérivé N-acétylé] (Ac-Thr-Lys-Pro-OH),propriétés au terme des mêmes tests,macrophages [1],essentiellement les mêmes propriétés
